Laboratory results published in BindingDB's records for doi:10.1111/cbdd.12161 (Dalian University of Technology, 2013).
pKd: −log10 of the molar value.

Target: T1, Induced myeloid leukemia cell differentiation protein Mcl-1 [172-327] (Homo sapiens, UniProt Q07820)
T1 construct: 172-327
Assay: ITC experiments
Conditions: pH 8; 25 °C
Method: ITC experiments were carried out using iTC200 (Microcal LLC, Northampton, MA, USA) with each of the compounds 1-6 and Mcl-1 protein. The heat of reaction was obtained by making 16 injections (2.4 µL each) of the ligand (final concentration in the syringe of 200 µM in 50 mM Tris, 150 mM NaCl, and 5% DMSO, pH 8.0) into the reaction cell that contained Mcl-1 in the same buffer (final protein concentration of 20 µM). The experiments were done at 25°C and at a stirring speed of 500 rpm. For the control experiment, the sample cell was filled with the assay buffer and the compound solution was added, respectively.

T1 sequence (Q07820 172-327): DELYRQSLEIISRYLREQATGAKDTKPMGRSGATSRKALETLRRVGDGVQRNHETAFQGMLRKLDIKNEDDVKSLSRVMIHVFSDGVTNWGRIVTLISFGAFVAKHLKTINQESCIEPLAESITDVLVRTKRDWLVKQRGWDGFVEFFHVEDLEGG

pKd	Structure (SMILES)
6.02	Cc1ccc(Sc2ccc3c(c2)C(=O)c2cc(O)c(O)cc2C3=O)cc1
5.83	O=C1c2ccc(Sc3ccccc3)cc2C(=O)c2cc(O)c(O)cc21
6.62	CC(C)c1ccc(Sc2ccc3c(c2)C(=O)c2cc(O)c(O)cc2C3=O)cc1
5.74	O=C1c2ccc(Br)cc2C(=O)c2cc(O)c(O)cc21
5.73	O=C1c2ccccc2C(=O)c2cc(O)c(O)cc21
